The term IC50 denotes the point on the concentration scale where inhibition reaches its midpoint.

The record followed here is patent publication US5606037A, “Processes antineoplastic heteronaphthoquinones” (BioChem Pharma Inc., priority 1995, dated 1997).

Structures can show the parent of a compound that is named as a salt.

Assay type in all cases: cell-based, Human
The test system of experiment [1] is SKOV3 (Ovarian adenocarcinoma). Description: In vitro cytotoxicity, microculture tetrazolium (MTT) assay, SKOV3. As to conditions: Homo sapiens, SK-OV-3; SKOV3 ovarian adenocarcinoma; 48 h with compound, further 48 h, MTT; Table 1. The protocol:
(§1) The microculture tetrazolium assay was used to test in vitro cytotoxicity. This assay is described in Plumb, J. A. et al., 1989 Cancer Research 49, 4435-4440, which is herein incorporated by reference. The cytotoxicity of compounds towards tumor cells is measured in vitro using the assay. This assay method is based upon the ability of live, but not dead cells to reduce the yellow water soluble dye 3-(4,5-dimethylthiazol-2-yl)-2,5-diphenyltetrazolium bromide (MTT) to its water insoluble purple formazan product.
(§2) Human Tumor Cell lines, used were:
SKOV3 (Ovarian adenocarcinoma)--provided by Dr. V. Ling, Ontario Cancer Institute.
(§3) The cells were maintained in exponential growth in culture in minimal essential media (MEM) supplemented with non-essential amino acids, and containing 15% (v/v) fetal. bovine serum, 5 mM L-glutamine, 1 mM sodium pyruvate, and 0.1 U/ml insulin. All cell lines were grown at 37° C. in an atmosphere of 5% CO2 in air.
(§4) MTT: 2 mg/ml in phosphate buffered saline (stable at 4° C. in dark for 1 week).
(§5) Sorensen's buffer: 0.1M glycine/NaOH, pH 10.5, containing 0.1M NaCl.
(§6) Test compounds: 20 mM in DMSO and diluted to a final concentration of 200 μM in culture medium before use.
(§7) For each assay, doxorubicin is included as an inter-assay standard. This allows us to monitor the behaviour of the assay in general, and in particular, to check that the SKVLB line has maintained its resistant phenotype.
(§8) The assays are carried out in 96-well (8 well×12 well) microtiter plates. Serial dilutions of the compound are tested along the length of the plate. A 1:3 serial dilution of compound in culture medium covers a concentration range from 100 μM to 1.7 nM. Each concentration of compound is tested in quadruplet, allowing two compounds to be tested per plate. Wells containing no cells (blank) and cells with no test compound (control) are included on each plate.
(§9) Cells are plated out in 100 μl of culture medium in the microtiter plates at a density of around 1,500-4,000 cells per well. The plates are incubated overnight to allow the cells to become adherent after which the test compound is added (100 μl of appropriate dilution per well). The cells are incubated with test compound at 37° C. for 48 h after which the compound is replaced with fresh medium. After a further 48 h incubation at 37° C., 50 μl of MTT solution (2 mg/ml) is added to each well. The plates are incubated in the dark for 4 h at 37° C. after which the medium is removed. The MTT formazan product is extracted from the cells by the addition of 200 μl DMSO followed by 50 μl of Sorensen's buffer. The plates are shaken briefly and the absorbance at 570 nm is read using a Molecular Devices UV max plate reader. Curves are fit to the MTT assay data using a four parameter logistic equation, and the data are normalized to fit a 0% to 100% survival scale.

In experiment [2] the test system is SKVLB (Ovarian; multidrug resistant). Description: In vitro cytotoxicity, microculture tetrazolium (MTT) assay, SKVLB. The conditions noted are these: Homo sapiens; SKVLB multidrug resistant ovarian; 48 h with compound, further 48 h, MTT; Table 1. The protocol: as §1, §2
SKVLB (Ovarian; multidrug resistant)--Dr. V. Ling, Ontario Cancer Institute.
as §3, §4, §5, §6, §7, §8, §9

The test system of experiment [3] is HT 29 (Colon adenocarcinoma). As to the kind of experiment: In vitro cytotoxicity, microculture tetrazolium (MTT) assay, HT29. As to conditions: Homo sapiens, HT-29, 48 h with compound, further 48 h, Table 1. The protocol: as §1, §2
HT 29 (Colon adenocarcinoma) ATCC catalog #HTB-38.
as §3, §4, §5, §6, §7, §8, §9

The subject of the next experiment is Lox (Melanoma). Description: In vitro cytotoxicity, microculture tetrazolium (MTT) assay, LOX. The conditions noted are these: Homo sapiens, 48 h with compound, further 48 h, Table 1. The protocol:
as §1, §2
Lox (Melanoma)--Southern Research Institute.
as §3, §4, §5, §6, §7, §8, §9

Experiment [4] has as its system T47D (Ductal carcinoma of breast). Description: In vitro cytotoxicity, microculture tetrazolium (MTT) assay, T47D. The conditions noted are these: Homo sapiens, 48 h with compound, further 48 h, Table 1. The protocol:
as §1, §2
T47D (Ductal carcinoma of breast)--ATCC catalog #HTB-133.
as §3, §4, §5, §6, §7, §8, §9

On to `CC(=O)[C@@H]1CC2=C(C(=O)c3ccccc3C2=O)[C@@H](O[C@H]2C[C@H](NC(=O)C(F)(F)F)[C@H](I)[C@H](C)O2)O1` [BCH1620, (1'-S,1-R,3-S)-methyl-(1-[2',3',6'-trideoxy-3'-trifluoroacetamido-4'-iodo-L-lyxohexopyranose]-5,10-dioxo-3,4,5,10-tetrahydronaphtho-[2,3-c]-pyran-3-yl)-ketone], for which the concentration for half-maximal inhibition (IC50) is 4.2 nM in experiment [1]; 216 nM in experiment [2]; 32.8 nM in experiment [3]; 22.7 nM in the experiment on Lox (Melanoma); 183 nM in experiment [4].
For `CC(=O)[C@H]1CC2=C(C(=O)c3ccc(O)cc3C2=O)[C@H](O[C@H]2C[C@H](NC(=O)C(F)(F)F)[C@H](O)[C@H](C)O2)O1` [BCH1180, (1'S,1S,3R)-Methyl (5,10-dioxo-1-(2',3',6'-trideoxy-3'-trifluoroacetamido-L-lyxohexopyranose)-7-hydroxy-3,4,5, 10-tetrahydro[2,3-C]pyran-3-yl) ketone], in that order: 851 nM, 8680 nM, 468 nM, 3330 nM and 7610 nM.
Regarding `COC(=O)[C@@]1(C)CC2=C(C(=O)c3ccccc3C2=O)[C@H](O[C@H]2C[C@H](NC(=O)C(F)(F)F)[C@H](O)[C@H](C)O2)O1` [BCH2076, (1'S,1S,3R)-1-(3'-trifluoroacetamido-2',3',6'-trideoxy-lyxo-L-hexopyranose)-3-methoxycarbonyl-3-methyl-3,4,5,10-tetrahydro-5,10-dioxo-naphtho-[2,3-c]pyran], the IC50 in experiment [1] was 1430 nM; in experiment [2], 12400 nM; in experiment [3], 2600 nM; in the experiment on Lox (Melanoma), 1800 nM; in experiment [4], 6530 nM.
For `COC(=O)[C@H](CC(C)C)NC(=O)[C@@H](N)CO[C@H]1O[C@H](C(C)=O)CC2=C1C(=O)c1ccccc1C2=O` [BCH2000, (1S,2'S,3S,5'S)-Methyl-(1-O-[Serine-Leucine-Me ester]-5,10-dioxo-3,4,5,10-tetrahydro-1-H-naphtho[2,3-c]pyran-3-yl) ketone hydrochloride], in that order: 95 nM, 6640 nM, 37.8 nM, 90.5 nM and 338 nM.
As for `CC(=O)C1CC2=C(C(=O)c3ccccc3C2=O)C(OCC2CCCNC2)O1` (mixture of isomers) [BCH2061, Methyl-(1-O-[3-piperidinemethanol]-5,10-dioxo-3,4,5,10-tetrahydronaphthaleno-[2,3-c]pyran-3-yl) ketone hydrochloride salt], the IC50 in experiment [1] was found to be 8.3 nM; in experiment [2] it was 141 nM; in experiment [3], 54 nM; in the experiment with Lox (Melanoma), 45 nM; in experiment [4] it was 270 nM.
Take `CO[C@H]1C[C@H](O[C@H]2O[C@H](C(C)=O)C[C@]34O[C@]23C(=O)c2ccccc2C4=O)O[C@@H](C)[C@H]1OS(C)(=O)=O` [BCH2141, (1'-S,1-R,3-S,4a-S,10a-S)-methyl-(1-[2',3',4',6'-tetradeoxy-3'-methoxy-4'-O-methanesulfonyl-L-lyxohexopyranose)-4a,10a-epoxy-5,10-dioxo-3,4,5,10-tetrahydronaphtho-[2,3-c]pyran-3-yl) ketone]: the IC50 in experiment [1] worked out at 8120 nM; in experiment [2] it was 9960 nM; in experiment [3], 6440 nM; in the experiment with Lox (Melanoma), 1820 nM; in experiment [4], 3790 nM.
Take `CC(=O)C1CC2=C(C(=O)c3ccccc3C2=O)C(O[C@H]2C[C@H](NC(=O)C(F)(F)F)[C@H](OS(C)(=O)=O)[C@H](C)O2)O1` (mixture of isomers) [BCH2095, (1'-S, 1-S, 3-R) and (1'-S, 1-R, 3-S)-methyl-(1-[2',3',4',6' tetradeoxy-3'-trifluoroacetamido-4'-O-methane-sulfonyl-L-lyxohexopyranose)-5,10-dioxo-3,4,5,10 tetrahydronaphtho-[2,3-c]pyran-3-yl) ketone]: the IC50 in experiment [1] stood at 190 nM; in experiment [2], 1600 nM; in experiment [3], 99.6 nM; with Lox (Melanoma), 140 nM; in experiment [4] it was 370 nM.
